{"source": "patent EP3161491B1", "about": "“[…] FOR THE DETECTION OF THE MANIPULATION OF MUSCLE GROWTH IN A DOMESTIC ANIMAL” (Stichting Kwaliteitsgarantie Vleeskalversector, priority 2014, dated 2015)", "key": {"[1]": {"test_system": "anti-myostatin antibodies", "description": "Calves were randomly assigned into treatment groups. Twenty one (21) Holstein-Friesian calves (12 male and 9 female) between 9 - 14 weeks of age were included in the study. […] The control group was only injected with the injection fluids, whereas the second group was treated with the myostatin propeptide fragment. The treatments were administered intramuscularly on day 0, day 35 and day 88 of the treatment. Animals were monitored during 19 weeks from the start of the treatment.\nMyostatin propeptide fragment (SEQ ID NO 1) was dissolved in sterile arachis oil, and mixed with ViteSel, Freund's Adjuvant Incomplete, or Freund's Adjuvant Complete for injection. […] The control group was injected with the same injection fluid, but without the added peptide. […]\nThe coated microplate wells were coated with Imperacer® wash buffer \"A\" using washer-program \"block\", block against unspecific interaction with \"chimera direct block\" solution (240 µl/well, 1 min/RT) and with Imperacer® wash buffer \"B\". After this treatment, the microplate wells were ready for sample incubation. […]\nThe wells were subsequently washed with Imperacer® wash buffers \"B\" and \"A\". 30 µl/well of ready-to-use Imperacer® PCR-mastermix were added to each well. The wells were sealed using real-time PCR foil, and placed into the Imperacer® reader 50 cycles at 95°C with 12 sec per cycle, at 50°C for 30 sec and at 72°C for 30 sec. […]"}, "[2]": {"test": "Observation of general health of calves during the 19 weeks treatment period", "assay_type": "in vivo, Holstein-Friesian calves", "conditions": "three intramuscular treatments, 19 weeks observation", "procedure": "Calves were randomly assigned into treatment groups.\nAll calves were treated with the myostatin propeptide fragment three times with during the observation period. Physical data and samples were collected during the life-time of the calves, such as general health, local reactions, and body weight. Serum samples were collected. Some clinical signs were observed, but they remained within a range that was considered normal for a 19 weeks fattening period. […] The animals were healthy at the time of slaughter and all slaughter samples were collected."}, "[3]": {"test_system": "myostatin pathway biomarkers", "conditions": "change relative to non-manipulated reference animal", "procedure": "Example 2 was repeated using bovine samples analysed in Example 1.\nDetection Conjugate \"CHI-Bovine-IgG\" (conjugated antibody: anti-Bovine IgG-heavy and light chain Antibody, Sheep Polyclonal, catalogue number: A10-115; Supplier: Bethyl Laboratories, Inc., USA) was used instead of the mouse conjugate. All other Imperacer conjugates for the additional myostatin pathway biomarkers were prepared using standard methods as described in EP 2189539 ([0106]-[0122]). For the biomarkers p-AKT, p-FOXO, MyOD1, MyoG, FBO32, ALK type 1, Pax3, Myf-5, MuRF1, CDKN1 and CDK2, tissue homogenate instead of serum was used. Table 7: Biomarker analysis\nThe additional myostatin pathway biomarkers shown in Table 7 were quantified using immune-PCR."}}, "data": [{"sequence": "CKMSPINMLYFNGKEQIIYG [myostatin propeptide fragment]", "values": [{"measurement": "Amount of antibodies measured in sample", "setting": "[1]; anti-myostatin IgG in calf blood serum, intramuscular treatment on day 0, day 35 and day 88", "value": 382, "unit": "ng/mL"}, {"measurement": "levels of measured anti-myostatin IgG antibodies and treatment", "setting": "[1]; blind and open tests, compared to the negative control animals", "value": "clear association"}, {"measurement": "general health of the calves", "setting": "[2]", "value": "did not impact the general health of the calves"}, {"measurement": "(P)-SMAD2/ SMAD 3", "setting": "[3]; calf sample", "value": "-"}, {"measurement": "Act IIB", "setting": "[3]; calf serum", "value": "+"}, {"measurement": "IgG anti-myostatin antibodies", "setting": "[3]; calf serum", "value": "+"}, {"measurement": "Leptin", "setting": "[3]; calf serum", "value": "+"}, {"measurement": "Myostatin Propeptide", "setting": "[3]; calf serum", "value": "-"}, {"measurement": "(p)-FOxO", "setting": "[3]; calf tissue homogenate", "value": "+"}, {"measurement": "ALK type 1", "setting": "[3]; calf tissue homogenate", "value": "-"}, {"measurement": "CDK2", "setting": "[3]; calf tissue homogenate", "value": "+"}, {"measurement": "CDKN1 A", "setting": "[3]; calf tissue homogenate", "value": "+"}, {"measurement": "FBXO32", "setting": "[3]; calf tissue homogenate", "value": "-"}, {"measurement": "MuRF1", "setting": "[3]; calf tissue homogenate", "value": "-"}, {"measurement": "Myf-5", "setting": "[3]; calf tissue homogenate", "value": "+"}, {"measurement": "MyoD1", "setting": "[3]; calf tissue homogenate", "value": "+"}, {"measurement": "MyoG", "setting": "[3]; calf tissue homogenate", "value": "+"}, {"measurement": "Pax 3", "setting": "[3]; calf tissue homogenate", "value": "+"}, {"measurement": "p-AKT", "setting": "[3]; calf tissue homogenate", "value": "+"}]}]}
